Results reported in ChEMBL document CHEMBL5230136, “A review: Biologically active 3,4-heterocycle-fused coumarins” (Eur J Med Chem, 2021).

Key:
[1] = tested on: LS180; assay: cells; settings: Homo sapiens
Description: Cytotoxicity against human LS180 cells at 50 uM by MTT reduction assay

[2] = tested on: HeLa; assay: cells; settings: Homo sapiens
Description: Cytotoxicity against human HeLa cells at 50 uM by MTT reduction assay

[3] = tested on: MCF7; assay: Cytotoxicity against human MCF7 cells […] by MTT reduction assay; format: functional, cell-based
[4] = tested on: K562; assay: cells; settings: Homo sapiens
Description: Cytotoxicity against human K562 cells at 50 uM by MTT reduction assay

[5] = tested on: Bacillus cereus; assay: Antibacterial activity against Bacillus cereus assessed as zone of inhibition at 20 mg/ml; format: functional; settings: read-out: IZ
[6] = tested on: Staphylococcus aureus; assay: Antibacterial activity against Staphylococcus aureus assessed as zone of inhibition at 20 mg/ml; format: functional; settings: read-out: IZ
[7] = tested on: Candida albicans; assay: Antifungal activity against Candida albicans assessed as zone of inhibition at 20 mg/ml; format: functional; settings: read-out: IZ
[8] = tested on: Pseudomonas aeruginosa; assay: Antibacterial activity against Pseudomonas aeruginosa assessed as zone of inhibition at 20 mg/ml; format: functional; settings: read-out: IZ
[9] = tested on: Geotrichum candidum; assay: Antifungal activity against Geotrichum candidum assessed as zone of inhibition at 20 mg/ml; format: functional; settings: read-out: IZ
[10] = tested on: Micrococcus luteus; assay: Antibacterial activity against Micrococcus luteus assessed as zone of inhibition at 20 mg/ml; format: functional; settings: read-out: IZ
[11] = tested on: Trichophyton rubrum; assay: Antifungal activity against Trichophyton rubrum assessed as zone of inhibition at 20 mg/ml; format: functional; settings: read-out: IZ
[12] = tested on: Scopulariopsis; assay: Antifungal activity against Scopulariopsis assessed as zone of inhibition at 20 mg/ml; format: functional; settings: read-out: IZ
[13] = tested on: Fusarium oxysporum; assay: Antifungal activity against Fusarium oxysporum assessed as zone of inhibition at 20 mg/ml; format: functional; settings: read-out: IZ
[14] = tested on: Aspergillus flavus; assay: Antifungal activity against Aspergillus flavus assessed as zone of inhibition at 20 mg/ml; format: functional; settings: read-out: IZ
[15] = tested on: Escherichia coli; assay: Antibacterial activity against Escherichia coli assessed as zone of inhibition at 20 mg/ml; format: functional; settings: read-out: IZ
[16] = tested on: Serratia marcescens; assay: Antibacterial activity against Serratia marcescens assessed as zone of inhibition at 20 mg/ml; format: functional; settings: read-out: IZ
[17] = tested on: Salmonella typhimurium; assay: Antibacterial activity against Salmonella typhimurium DT104 assessed as zone of inhibition at 100 ug/ml; format: functional, Salmonella enterica subsp. enterica serovar Typhimurium; settings: Salmonella enterica, read-out: IZ
[18] = tested on: Bacillus subtilis; assay: Antibacterial activity against Bacillus subtilis assessed as zone of inhibition at 100 ug/ml; format: functional; settings: read-out: IZ
[19] = tested on: Escherichia coli; assay: Antibacterial activity against Escherichia coli assessed as zone of inhibition at 100 ug/ml; format: functional; settings: read-out: IZ
[20] = tested on: Staphylococcus aureus; assay: Antibacterial activity against Staphylococcus aureus assessed as zone of inhibition at 100 ug/ml; format: functional; settings: read-out: IZ

Q: For O=C1CCCc2nc3c(c(-c4ccc([N+](=O)[O-])cc4)c21)c(=O)oc1ccccc13, which IC50 [1] is on record?
A: > 100 µM

Q: And the IC50 [2]?
A: 88.2 µM

Q: What about the IC50 [3] of the same compound?
A: > 100 µM

Q: What about the IC50 [4] of the same compound?
A: 43.8 µM

Q: Which IC50 [1] does the source give for Cc1cccc(-c2c3c(nc4c2c(=O)oc2ccccc24)CCCC3=O)c1 here?
A: > 100 µM

Q: And the IC50 [2]?
A: > 100 µM

Q: What about the IC50 [4] of the same compound?
A: 57.4 µM

Q: With CCOC(=O)c1sc2c(c1NC(=O)CN1CCOCC1)c(=O)oc1ccccc12 as the compound, how does the zone of inhibition at 20000 µg/mL [5] read?
A: 0 mm

Q: And the zone of inhibition at 20000 µg/mL [6]?
A: 0 mm

Q: What about the zone of inhibition at 20000 µg/mL [7] of the same compound?
A: 0 mm

Q: And the zone of inhibition at 20000 µg/mL [8]?
A: 9 mm

Q: What about the zone of inhibition at 20000 µg/mL [9] of the same compound?
A: 0 mm

Q: What about the zone of inhibition at 20000 µg/mL [10] of the same compound?
A: 0 mm

Q: And the zone of inhibition at 20000 µg/mL [11]?
A: 0 mm

Q: And the zone of inhibition at 20000 µg/mL [12]?
A: 0 mm

Q: And the zone of inhibition at 20000 µg/mL [13]?
A: 0 mm

Q: What about the zone of inhibition at 20000 µg/mL [14] of the same compound?
A: 0 mm

Q: And the zone of inhibition at 20000 µg/mL [15]?
A: 0 mm

Q: And the zone of inhibition at 20000 µg/mL [16]?
A: 0 mm

Q: Which results are given for CCOC(=O)c1sc2c(c1NC(=O)CNc1ccc(C)cc1)c(=O)oc1ccccc12?
A: zone of inhibition at 20000 µg/mL [5]: 0 mm; zone of inhibition at 20000 µg/mL [6]: 0 mm; zone of inhibition at 20000 µg/mL [7]: 13 mm; zone of inhibition at 20000 µg/mL [8]: 0 mm; zone of inhibition at 20000 µg/mL [9]: 8 mm; zone of inhibition at 20000 µg/mL [10]: 0 mm; zone of inhibition at 20000 µg/mL [11]: 0 mm; zone of inhibition at 20000 µg/mL [12]: 0 mm; zone of inhibition at 20000 µg/mL [13]: 0 mm; zone of inhibition at 20000 µg/mL [14]: 0 mm; zone of inhibition at 20000 µg/mL [15]: 0 mm; zone of inhibition at 20000 µg/mL [16]: 0 mm

Q: With Cc1ccccc1-c1c2c(nc3c1c(=O)oc1ccccc13)CCCC2=O as the compound, how does the IC50 [1] read?
A: > 100 µM

Q: What about the IC50 [2] of the same compound?
A: > 100 µM

Q: What about the IC50 [3] of the same compound?
A: > 100 µM

Q: And the IC50 [4]?
A: > 100 µM

Q: For COc1ccc(-c2c3c(nc4c2c(=O)oc2ccccc24)CCCC3=O)cc1, which IC50 [1] is on record?
A: > 100 µM

Q: What about the IC50 [2] of the same compound?
A: 98.5 µM

Q: And the IC50 [3]?
A: 62 µM

Q: And the IC50 [4]?
A: > 100 µM

Q: For NNC(=O)c1sc2c(c1N)c(=O)oc1ccccc12, which zone of inhibition at 20000 µg/mL [5] is on record?
A: 0 mm

Q: And the zone of inhibition at 20000 µg/mL [6]?
A: 10 mm

Q: And the zone of inhibition at 20000 µg/mL [7]?
A: 14 mm

Q: And the zone of inhibition at 20000 µg/mL [8]?
A: 10 mm

Q: What about the zone of inhibition at 20000 µg/mL [9] of the same compound?
A: 13 mm

Q: And the zone of inhibition at 20000 µg/mL [10]?
A: 0 mm

Q: And the zone of inhibition at 20000 µg/mL [11]?
A: 0 mm

Q: What about the zone of inhibition at 20000 µg/mL [12] of the same compound?
A: 13 mm

Q: And the zone of inhibition at 20000 µg/mL [13]?
A: 16 mm

Q: And the zone of inhibition at 20000 µg/mL [14]?
A: 10 mm

Q: And the zone of inhibition at 20000 µg/mL [15]?
A: 0 mm

Q: And the zone of inhibition at 20000 µg/mL [16]?
A: 11 mm

Q: Which results are given for COc1ccccc1-c1c2c(nc3c1c(=O)oc1ccccc13)CCCC2=O?
A: IC50 [1]: > 100 µM; IC50 [2]: > 100 µM; IC50 [3]: > 100 µM; IC50 [4]: > 100 µM

Q: Which IC50 [1] does the source give for O=C1CCCc2nc3c(c(-c4cccc(Cl)c4)c21)c(=O)oc1ccccc13 here?
A: > 100 µM

Q: And the IC50 [2]?
A: > 100 µM

Q: What about the IC50 [3] of the same compound?
A: 71.7 µM

Q: And the IC50 [4]?
A: 50.7 µM

Q: Which results are given for Cc1ccc2c(c1)oc(=O)c1c(-c3cn(-c4ccccc4)nc3-c3ccccc3)cc(-c3c(O)cc(O)cc3Cl)nc12?
A: zone of inhibition at 100 µg/mL [17]: 12 mm; zone of inhibition at 100 µg/mL [18]: 14 mm; zone of inhibition at 100 µg/mL [19]: 19 mm; zone of inhibition at 100 µg/mL [20]: 10 mm

Q: With Cc1ccc(-c2c3c(nc4c2c(=O)oc2ccccc24)CCCC3=O)cc1 as the compound, how does the IC50 [1] read?
A: > 100 µM

Q: And the IC50 [2]?
A: 43.6 µM

Q: And the IC50 [3]?
A: 66.7 µM

Q: And the IC50 [4]?
A: 56.2 µM

Q: For COc1cccc(-c2c3c(nc4c2c(=O)oc2ccccc24)CCCC3=O)c1, which IC50 [1] is on record?
A: > 100 µM

Q: What about the IC50 [2] of the same compound?
A: > 100 µM

Q: What about the IC50 [3] of the same compound?
A: > 100 µM

Q: And the IC50 [4]?
A: > 100 µM

Q: What does the source list for O=C1CCCc2nc3c(c(-c4ccc(Br)cc4)c21)c(=O)oc1ccccc13?
A: IC50 [1]: > 100 µM; IC50 [2]: 47.3 µM; IC50 [3]: 46.2 µM; IC50 [4]: 47.5 µM

Q: Which zone of inhibition at 20000 µg/mL [5] does the source give for CCOC(=O)c1sc2c(c1NC(=O)CNc1ccc(S(=O)(=O)NN=N)cc1)c(=O)oc1ccccc12 here?
A: 0 mm

Q: What about the zone of inhibition at 20000 µg/mL [6] of the same compound?
A: 10 mm

Q: What about the zone of inhibition at 20000 µg/mL [7] of the same compound?
A: 13 mm

Q: What about the zone of inhibition at 20000 µg/mL [8] of the same compound?
A: 9 mm

Q: And the zone of inhibition at 20000 µg/mL [9]?
A: 0 mm

Q: And the zone of inhibition at 20000 µg/mL [10]?
A: 0 mm

Q: What about the zone of inhibition at 20000 µg/mL [11] of the same compound?
A: 0 mm

Q: And the zone of inhibition at 20000 µg/mL [12]?
A: 0 mm

Q: And the zone of inhibition at 20000 µg/mL [13]?
A: 0 mm

Q: What about the zone of inhibition at 20000 µg/mL [14] of the same compound?
A: 0 mm

Q: And the zone of inhibition at 20000 µg/mL [15]?
A: 9 mm

Q: What about the zone of inhibition at 20000 µg/mL [16] of the same compound?
A: 0 mm

Q: For CC1(C)S[C@@H]2[C@H](NC(=O)Cc3ccccc3)C(=O)N2[C@H]1C(=O)O [PENICILLIN G], which zone of inhibition at 100 µg/mL [17] is on record?
A: 22 mm

Q: What about the zone of inhibition at 100 µg/mL [18] of the same compound?
A: 24 mm

Q: What about the zone of inhibition at 100 µg/mL [19] of the same compound?
A: 22 mm

Q: And the zone of inhibition at 100 µg/mL [20]?
A: 24 mm

Q: With Cc1ccc2c(c1)oc(=O)c1c(-c3cn(-c4ccccc4)nc3-c3ccccc3)cc(-c3c(O)c(I)cc(Cl)c3Cl)nc12 as the compound, how does the zone of inhibition at 100 µg/mL [17] read?
A: 14 mm

Q: What about the zone of inhibition at 100 µg/mL [18] of the same compound?
A: 8 mm

Q: And the zone of inhibition at 100 µg/mL [19]?
A: 18 mm

Q: What about the zone of inhibition at 100 µg/mL [20] of the same compound?
A: 16 mm
